Measurements: the NIST ThermoML archive (doi:10.1021/je500314x)

Columns and labels:
[1] = gamma densitometer
[2] = wn = mass fraction of the nth substance listed; conditions: Liquid, gamma densitometer

C1CCCCC1 [cyclohexane]
[1], 5000 kPa, Fluid (supercritical or subcritical phases)
Conditions	mass density [kg/m3]
287 K	788.3
305.9 K	763.7
324.9 K	752.1
351 K	731.8
375 K	704.3
394.8 K	686.7
416.6 K	666.5
431.9 K	646.2
452.4 K	620.2
475.1 K	595.5
488.4 K	573.5
504.4 K	546.3
513.9 K	527.5
522.6 K	510.3
531.9 K	487
543 K	454.5
553.2 K	426.2
561.7 K	365.6
572.1 K	259.5
584.2 K	187
592.5 K	167
603.6 K	149.3
618.8 K	133
635 K	118.3
654.2 K	109.8
672.3 K	96.5
687.5 K	92
698.5 K	89.9

N#N [nitrogen]
mass density [kg/m3], [1], Gas
Conditions	293.2 K	473.2 K
100 kPa	1.15	0.68
600 kPa	7.36	3.79
1000 kPa	–	8
1100 kPa	11.22	–
1600 kPa	17.77	11.8
2100 kPa	23.64	14.69
2600 kPa	27.88	–
3100 kPa	33.96	21.05
3600 kPa	40.54	–
4000 kPa	–	27.65
4100 kPa	46.43	–
4600 kPa	53.49	–
5100 kPa	58.28	–
5600 kPa	62.2	–
6000 kPa	69.11	–

CCCCCCCC [octane] + CCCCCCC
[2]
Conditions	mass density [kg/m3]
303.1 K, 5100 kPa, w2 = 0.5	686.2
313.3 K, 5100 kPa, w2 = 0.5	678.1
323 K, 5100 kPa, w2 = 0.5	670
332.7 K, 5100 kPa, w2 = 0.5	663.3
344.1 K, 5100 kPa, w2 = 0.5	655.9
353.2 K, 5100 kPa, w2 = 0.5	645.5
362.9 K, 5100 kPa, w2 = 0.5	638.9
372.3 K, 5100 kPa, w2 = 0.5	632.3
374.7 K, 3300 kPa, w2 = 0.255	633.2
374.8 K, 8000 kPa, w2 = 0.255	640.4
380.5 K, 3200 kPa, w2 = 0.51	619.9
380.5 K, 8700 kPa, w2 = 0.51	631.1
383.2 K, 5100 kPa, w2 = 0.5	623.2
393 K, 5100 kPa, w2 = 0.5	611.8
405.1 K, 5100 kPa, w2 = 0.5	604.3
413.8 K, 5100 kPa, w2 = 0.5	592.5
424.2 K, 5100 kPa, w2 = 0.5	584.4
424.4 K, 4900 kPa, w2 = 0.51	582.4
424.5 K, 7200 kPa, w2 = 0.51	588
429.4 K, 3500 kPa, w2 = 0.255	584
429.4 K, 8300 kPa, w2 = 0.255	592.3
433.2 K, 5100 kPa, w2 = 0.5	573.5
443 K, 5100 kPa, w2 = 0.5	560.6
453.1 K, 5100 kPa, w2 = 0.5	554.4
464.5 K, 5100 kPa, w2 = 0.5	545.2
466.6 K, 3200 kPa, w2 = 0.51	535.5
466.7 K, 8600 kPa, w2 = 0.51	554.2
473.6 K, 5100 kPa, w2 = 0.5	531.6
475.8 K, 4400 kPa, w2 = 0.255	538.4
475.9 K, 8500 kPa, w2 = 0.255	554.4
484.2 K, 5100 kPa, w2 = 0.5	524
492.8 K, 5100 kPa, w2 = 0.5	508
503.1 K, 5100 kPa, w2 = 0.5	495.9
513.2 K, 5100 kPa, w2 = 0.5	483.6
518 K, 4900 kPa, w2 = 0.51	479.1
518 K, 7500 kPa, w2 = 0.51	494.8
522.4 K, 5100 kPa, w2 = 0.5	470.1
525.5 K, 4700 kPa, w2 = 0.255	473.6
525.5 K, 7300 kPa, w2 = 0.255	493.5
533 K, 5100 kPa, w2 = 0.5	451.2
543.3 K, 5100 kPa, w2 = 0.5	437.7
549.3 K, 5400 kPa, w2 = 0.51	427.9
549.4 K, 8700 kPa, w2 = 0.51	461.2
553 K, 5100 kPa, w2 = 0.5	415.1
557.2 K, 5300 kPa, w2 = 0.255	427.1
557.2 K, 8200 kPa, w2 = 0.255	460.9
563.5 K, 5100 kPa, w2 = 0.5	394
575.1 K, 5100 kPa, w2 = 0.5	372.9
583.8 K, 5100 kPa, w2 = 0.5	348.2
591.2 K, 5100 kPa, w2 = 0.5	319

O [water]
[1], Liquid
Conditions	mass density [kg/m3]
286 K, 3000 kPa	1000.7
288.3 K, 5000 kPa	1001.4
303.5 K, 5000 kPa	996.5
305 K, 3000 kPa	996.2
322.6 K, 3000 kPa	988.4
324.8 K, 5000 kPa	990.7
343.4 K, 3000 kPa	977.7
344.3 K, 5000 kPa	981.8
356.4 K, 3000 kPa	969
358.6 K, 5000 kPa	966.8
372.3 K, 5000 kPa	957.1
374.7 K, 3000 kPa	962.3
384 K, 5000 kPa	947
391.2 K, 3000 kPa	945
393.6 K, 5000 kPa	938.5
403.8 K, 5000 kPa	932.6
412.5 K, 3000 kPa	927.7
414.2 K, 5000 kPa	923
423.2 K, 5000 kPa	915.2
423.8 K, 3000 kPa	920.4
432.8 K, 5000 kPa	903.3
442.5 K, 3000 kPa	899.6
442.7 K, 5000 kPa	893.8
452.6 K, 5000 kPa	884.3
462 K, 5000 kPa	876.7
462.5 K, 3000 kPa	880.9
471.4 K, 3000 kPa	873.1
474.3 K, 5000 kPa	864.5
483.9 K, 3000 kPa	858.3
484.1 K, 5000 kPa	854.6
491.4 K, 5000 kPa	839.5
492.5 K, 3000 kPa	841.7
500.4 K, 3000 kPa	827.9
502.5 K, 5000 kPa	824.9
511 K, 5000 kPa	814.1
